US8933122B2, “Use of cationic surfactants as sporicidal agents” (Laboratorios Miret, S.A., priority 2008, dated 2015)

Experiments:
[1] = system: endospores from Geobacillus stearothermophilus ATCC 12980; assay: Sporicidal activity, quantitative suspension test EN 13704:2002 (Example 3); type: cell-based; settings: 40° C.; for calculated reduction (R) R=N×0.1/Na: 60 minutes; for Test of LAE sporicidal activity (Na), surviving spores count: water as interfering substance, N 1.3 × 10^6 cfu/mL
Description: The determination of the sporicidal activity of LAE has been carried out according to the European standard EN 13704:2002: “Chemical disinfectant—Quantitative suspension test for the evaluation of sporicidal activity of chemical disinfectants used in food, industrial, domestic and institutional areas—Test method and requirements”.
A test suspension containing endospores from Geobacillus stearothermophilus ATCC 12980 was prepared from a culture grown on a nutrient agar, to which additional sporulation enhancement ingredients were added. Plates were harvested with sterile water and endospores were purified by repeated centrifugations and resuspensions in water.
Neutralizer. The neutralizer mixture consisted of 30 g/L polysorbate 80 in water. The solution was intended to neutralize any chemicals so that these would not affect subsequent growth of the bacteria.
The sporicidal activity of a given product is defined by its capacity to reduce at least by 10^3 the amount of Geobacillus stearothermophilus bacterial spores in suspension, in the conditions established in the method.
The product was in contact with a suspension of bacterial spores during an established period of time of 60 minutes. An interfering substance can be added to the suspension, in this case water. Next, the effect of the product is neutralized by adding a neutralizer previously chosen, preceding to the surviving spores count.
• 1. Spore suspension obtained from a spored-form culture of Geobacillus stearothermophilus • 2. Count of the spore suspension of Geobacillus stearothermophilus. • 3. The possible toxic effect of the neutralizer on the spores in the absence of the product is valued. • 4. Validation of the dilution-neutralisation method. • 5. Evaluation of the inhibitory sporicide effect of the product. • 6. Result calculation. Results: Results are expressed as the reduction of viability of the spore suspension in regards to:
Tabulation of the Method and Test Validation Results (at 40° C.): […]

[2] = system: Bacillus cereus var mycoide ATCC 11778; settings: Gram + Bacteria; cited from earlier work
[3] = system: Bacillus subtilis ATCC 6633; settings: Gram + Bacteria; cited from earlier work
[4] = system: Clostridium perfringens ATCC 77454; settings: Gram + Bacteria; cited from earlier work
[5] = system: Leuconostoc mesenteroides CETC 912; settings: Gram + Bacteria; cited from earlier work
[6] = system: Enterobacter aerogenes CECT 689; settings: Gram − Bacteria; cited from earlier work
Escherichia coli 0157H7 = settings: Gram − Bacteria; cited from earlier work
[7] = system: Klebsiella pneumoniae var pneumoniae CECT 178; settings: Gram − Bacteria; cited from earlier work
[8] = system: Salmonella typhimurium ATCC16028; settings: Gram − Bacteria; cited from earlier work
[9] = system: Serratia marcenses CECT 274; settings: Gram − Bacteria; cited from earlier work
[10] = system: Aspergillus niger ATCC 14604; settings: Fungi; cited from earlier work
[11] = system: Gliocadium virens ATCC 4645; settings: Fungi; cited from earlier work
[12] = system: Penicillium chrysogenum CECT 2802; settings: Fungi; cited from earlier work
[13] = system: Candida albicans ATCC 10231; settings: Yeast; cited from earlier work
[14] = system: Saccharomyces cerevisiae ATCC 9763; settings: Yeast; cited from earlier work

In the case of `CCCCCCCCCCCC(=O)N[C@@H](CCCN=C(N)N)C(=O)OCC.Cl` [LAE, ethyl ester of the lauramide of the arginine monohydrochloride], the “calculated reduction (R) R=N×0.1/Na” value ([1]; 58 μg/ml of LAE) is reported as < 10^3 cfu/mL, the “calculated reduction (R) R=N×0.1/Na” value ([1]; 115 μg/ml of LAE) is reported as < 10^3 cfu/mL and the “calculated reduction (R) R=N×0.1/Na” value ([1]; 173 μg/ml of LAE) is reported as > 10^3 cfu/mL. The “calculated reduction (R) R=N×0.1/Na” value ([1]; 230 μg/ml of LAE) was > 10^3 cfu/mL, the “calculated reduction (R) R=N×0.1/Na” value ([1]; 460 μg/ml of LAE) was > 10^3 cfu/mL and the “concentration displaying sporicidal activity (reduction equal to or above 10^3)” value ([1]; 60 minutes contact, EN 13704:2002) was no less than 173 μg/ml. The “Test of LAE sporicidal activity (Na), surviving spores count” value (“Test of LAE sporicidal activity (Na)” below) ([1]; LAE 58 μg/mL, 60 minutes contact) was 1.0 × 10^5 cfu/mL, the “Test of LAE sporicidal activity (Na)” value ([1]; LAE 115 μg/mL, 60 minutes contact) was 5.2 × 10^4 cfu/mL and the “Test of LAE sporicidal activity (Na)” value ([1]; LAE 173 μg/mL, 60 minutes contact) was <10^2 cfu/mL. The “Test of LAE sporicidal activity (Na)” value ([1]; LAE 230 μg/mL, 60 minutes contact) was <10^2 cfu/mL, the “Test of LAE sporicidal activity (Na)” value ([1]; LAE 460 μg/mL, 60 minutes contact) was <10^2 cfu/mL and the M.I.C. [2] was 32 ppm. The M.I.C. [3] was 16 ppm, the M.I.C. [4] was 16 ppm and the M.I.C. [5] was 32 ppm. The M.I.C. [6] was 32 ppm, the M.I.C. (Escherichia coli 0157H7) was 20 ppm and the M.I.C. [7] was 32 ppm. For the same compound, the M.I.C. [8] was 32 ppm, the M.I.C. [9] was 32 ppm and the M.I.C. [10] was 32 ppm. For the same compound, the M.I.C. [11] was 32 ppm, the M.I.C. [12] was 128 ppm and the M.I.C. [13] was 16 ppm. The M.I.C. [14] was 32 ppm.
